Test results from patent publication US20230295140A1, “INHIBITORS OF VAP-1” (Acucela Inc., priority 2021, published 2023).
Structures can show the parent of a compound that is named as a salt.

What was measured:
Assay type in all cases: biochemical
rhMAO-A = rhMAO-A (Homo sapiens (Human), UniProt P21397); assay: MAO-Glo assay, MAO-A inhibition
Method: (§1) The capability of compounds described herein to inhibit MAO was determined using a modified Promega MAO-Glo™ assay kit. The substrate ((4S)-4,5-dihydro-2-(6-hydroxybenzothiazolyl)-4-thiazolecarboxylic acid) was converted by MAO to produce methyl ester luciferin. The luciferin was then converted by luciferase to produce oxyluciferin and light. The light was measured using a luminescence setting on the plate reader. A standard curve was prepared by serially diluting luciferin in reaction buffer. The standard kit reaction buffer was used—100 mM HEPES (pH 7.5), 5% glycerol. The substrate was dispensed into the wells so that the final concentration for MAO-A inhibition assay would be 10 μM and MAO-B inhibition assay would be […]. Inhibitors were diluted in DMSO to 4× and distributed to the appropriate wells. Clorgyline and Deprenyl served as positive controls. rhMAO-A and rhMAO-B were purchased from Sigma. MAO-A or MAO-B was added to the appropriate wells. The plate was incubated for 1 hour, at room temperature with gentle shaking (90 rpm). The detection agent was added at equal volume (48 μL detection agent to 48 μL reaction). The plate was incubated for 20 minutes, at room temperature with gentle shaking (90 rpm). The plate luminescence was read. Data processing was performed using Prism software.
(§2) The capability of compounds described herein to inhibit MAO was determined using a modified Promega MAO-Glo™ assay. Test compounds, substrate and enzyme were incubated per manufacturer instructions for 1 hour, at room temperature with gentle shaking (90 rpm) before addition of detection agent. The detection agent was added at equal volume (48 μL detection agent to 48 μL reaction). The plate was incubated for 20 minutes, at room temperature with gentle shaking (90 rpm). The plate luminescence was read. Data processing was performed using Prism software.

rhVAP-1 = rhVAP-1 (Homo sapiens (Human), UniProt Q16853); assay: VAP-1 fluorometric assay (Amplex Red/HRP, benzylamine substrate); conditions: class symbols, ranges defined in μM
Method: The capability of compounds described herein to inhibit the enzymatic activity of vascular adhesion protein-1 (VAP-1) was determined by fluorometric assay. The assay procedure provided by R&D Systems was modified slightly for use as an inhibitor screening assay. The assay measured the H2O2 generated from the oxidative deamination of benzylamine by rhVAP-1 by converting Amplex® Red to the fluorescent product, resorufin, via horseradish peroxidase (HRP) and H2O2. Reaction buffer was 10 mM NaHCO3, pH 7.4. A standard curve was prepared by serially diluting H2O2 in reaction buffer. A 10 μM solution of resorufin was prepared in reaction buffer and was dispensed to 2 wells. These wells served as positive control for maximum fluorescence. Reaction buffer was added to the individual wells so that the final volume in each well was 100 μL. Amplex Red was diluted to 1 mM in reaction buffer. A 10 U stock of HRP was prepared in reaction buffer. A reaction cocktail was prepared by mixing equal parts 1 mM Amplex Red with 10 U HRP with 3 parts reaction buffers. The reaction cocktail was added to the appropriate wells, so that that final concentration in the well was 0.05 mM Amplex Red and 0.5 U HRP. A 200 μM solution of benzylamine was prepared in reaction buffer. Benzylamine was added to the appropriate wells so that the final concentration was 50 μM. Inhibitors were diluted in DMSO to 20× and distributed to the appropriate wells. LJP-1207 served a positive control. rhVAP-1 was purchased from R&D Systems. The concentration used for each lot was determined so that the activity was equal to the first lot. Two wells were left blank as controls. The plate was incubated for 30 minutes at 37° C., protected from light under foil. The plate was read at 530/35 emission and 590/35 excitation. Data processing was performed using Excel and Prism software.
The capability of compounds described herein to inhibit the enzymatic activity of vascular adhesion protein-1 (VAP-1) was determined by fluorometric assay. The assay procedure provided by R&D Systems was modified slightly for use as an inhibitor screening assay. The assay measured the H2O2 generated from the oxidative deamination of benzylamine by rhVAP-1 by converting Amplex® Red to the fluorescent product, resorufin, via horseradish peroxidase (HRP) and H2O2. Amplex Red, HRP, Benzylamine, inhibitors (with DMSO as vehicle, 0.5% v/v) and rhVAP-1 were added to the wells. Assay was conducted in 10 mM NaHCO3, pH 7.4. A standard curve was prepared by serially diluting H2O2 in reaction buffer. The plate was incubated for 30 minutes at 37° C., protected from light under foil. The plate was read at 530/35 emission and 590/35 excitation. Data processing was performed using Prism software.

rhMAO-B = rhMAO-B (Homo sapiens (Human), UniProt P27338); assay: MAO-Glo assay, MAO-B inhibition
Method: as §1, §2

[1] = class symbols, ranges defined in μM

rhMAO-B, sequence (P27338 whole entry): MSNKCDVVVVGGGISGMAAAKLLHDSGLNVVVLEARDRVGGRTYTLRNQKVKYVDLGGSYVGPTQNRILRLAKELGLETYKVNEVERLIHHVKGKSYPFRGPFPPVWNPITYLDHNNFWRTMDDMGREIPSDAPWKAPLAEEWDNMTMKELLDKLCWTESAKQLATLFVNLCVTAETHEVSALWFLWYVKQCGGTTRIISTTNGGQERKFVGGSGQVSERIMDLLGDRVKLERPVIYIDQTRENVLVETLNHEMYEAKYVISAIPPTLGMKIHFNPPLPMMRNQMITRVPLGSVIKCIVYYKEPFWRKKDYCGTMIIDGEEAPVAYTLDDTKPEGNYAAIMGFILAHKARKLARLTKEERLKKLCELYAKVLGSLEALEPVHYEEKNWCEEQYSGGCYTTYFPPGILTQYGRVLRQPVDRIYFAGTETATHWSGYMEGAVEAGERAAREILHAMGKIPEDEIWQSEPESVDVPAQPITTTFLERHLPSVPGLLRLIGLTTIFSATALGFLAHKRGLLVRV
rhMAO-A, sequence (P21397 whole entry): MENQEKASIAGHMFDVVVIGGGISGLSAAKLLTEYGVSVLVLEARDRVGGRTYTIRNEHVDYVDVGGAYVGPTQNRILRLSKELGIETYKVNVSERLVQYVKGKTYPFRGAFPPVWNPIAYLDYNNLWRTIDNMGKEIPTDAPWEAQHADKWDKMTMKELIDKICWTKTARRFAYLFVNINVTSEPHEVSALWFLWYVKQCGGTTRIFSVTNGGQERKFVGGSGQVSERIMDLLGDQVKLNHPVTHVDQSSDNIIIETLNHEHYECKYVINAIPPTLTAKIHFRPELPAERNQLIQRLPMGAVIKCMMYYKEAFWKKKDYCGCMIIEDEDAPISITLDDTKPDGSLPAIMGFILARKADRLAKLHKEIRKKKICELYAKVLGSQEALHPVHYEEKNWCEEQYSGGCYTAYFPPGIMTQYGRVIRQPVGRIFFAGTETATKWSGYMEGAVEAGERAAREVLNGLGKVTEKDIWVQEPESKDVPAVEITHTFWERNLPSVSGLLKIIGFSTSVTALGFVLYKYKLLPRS
rhVAP-1, sequence (Q16853 whole entry): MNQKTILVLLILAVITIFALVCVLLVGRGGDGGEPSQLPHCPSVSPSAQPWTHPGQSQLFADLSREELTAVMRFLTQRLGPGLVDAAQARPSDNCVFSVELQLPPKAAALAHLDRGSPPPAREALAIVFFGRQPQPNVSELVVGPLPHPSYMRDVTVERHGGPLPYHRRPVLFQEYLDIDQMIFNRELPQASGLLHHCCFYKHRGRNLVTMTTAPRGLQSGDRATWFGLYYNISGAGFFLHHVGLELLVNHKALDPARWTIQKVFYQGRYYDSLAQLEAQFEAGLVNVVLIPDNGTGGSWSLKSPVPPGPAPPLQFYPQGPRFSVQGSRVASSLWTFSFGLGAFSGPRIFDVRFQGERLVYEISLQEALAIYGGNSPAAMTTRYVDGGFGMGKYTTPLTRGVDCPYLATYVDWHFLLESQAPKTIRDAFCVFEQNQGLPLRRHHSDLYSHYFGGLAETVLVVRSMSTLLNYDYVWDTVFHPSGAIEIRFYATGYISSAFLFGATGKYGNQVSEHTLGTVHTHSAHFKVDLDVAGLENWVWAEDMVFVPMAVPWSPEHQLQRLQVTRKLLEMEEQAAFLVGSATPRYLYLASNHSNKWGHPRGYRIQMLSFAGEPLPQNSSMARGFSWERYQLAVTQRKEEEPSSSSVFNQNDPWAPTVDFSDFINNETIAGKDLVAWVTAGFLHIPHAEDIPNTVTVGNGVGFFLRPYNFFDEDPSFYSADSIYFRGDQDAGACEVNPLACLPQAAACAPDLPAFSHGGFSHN

Compound	IC50 (rhMAO-A; [1]) [µM]	IC50 (rhVAP-1) [µM]	IC50 (rhMAO-B; [1]) [µM]	IC50 (rhMAO-A; bound printed in cell) [µM]	IC50 (rhMAO-B; bound printed in cell) [µM]
CCCCc1nc2ccc(OC/C(=C/F)CN)cc2o1 [Example 1, (E)-2-(((2-butylbenzo[d]oxazol-6-yl)oxy)methyl)-3-fluoroprop-2-en-1-amine 4-methylbenzenesulfonate]	< 0.1	< 0.1	< 0.1		
CCCCc1nc2ccc(OC/C(=C/F)CN)c(F)c2o1 [Example 2, (E)-2-(((2-butyl-7-fluorobenzo[d]oxazol-6-yl)oxy)methyl)-3-fluoroprop-2-en-1-amine]	10 to 30	< 0.1	< 0.1		
CCCCc1nc2ccc(OC/C(=C/F)CN)cc2s1 [Example 3, (E)-2-(((2-butylbenzo[d]thiazol-6-yl)oxy)methyl)-3-fluoroprop-2-en-1-amine]	1 to 10	< 0.1	< 0.1		
CCCNc1nc2ccc(OC/C(=C/F)CN)cc2s1 [Example 4, (E)-6-((2-(aminomethyl)-3-fluoroallyl)oxy)-N-propylbenzo[d]thiazol-2-amine]	10 to 30	< 0.1	0.1 to 1		
CCCNc1nc2ccc(OC/C(=C/F)CN)cc2o1 [Example 5, (E)-6-((2-(aminomethyl)-3-fluoroallyl)oxy)-N-propylbenzo[d]oxazol-2-amine]	10 to 30	< 0.1	0.1 to 1		
CCCNc1nc2ccc(OC/C(=C/F)CN)c(F)c2o1 [Example 6, (E)-6-((2-(aminomethyl)-3-fluoroallyl)oxy)-7-fluoro-N-propylbenzo[d]oxazol-2-amine]	10 to 30	< 0.1	0.1 to 1		
CCCCc1nc2ccc(OC/C(=C/F)CN)c(Br)c2s1 [Example 7, (E)-2-(((7-bromo-2-butylbenzo[d]thiazol-6-yl)oxy)methyl)-3-fluoroprop-2-en-1-amine]	< 0.1	< 0.1	< 0.1		
CCCCc1nc2cc(OC/C(=C/F)CN)ccc2o1 [Example 8, (E)-2-(((2-butylbenzo[d]oxazol-5-yl)oxy)methyl)-3-fluoroprop-2-en-1-amine 4-methylbenzenesulfonate]	1 to 10	< 0.1	< 0.1		
CCCCn1oc2cc(OC/C(=C/F)CN)ccc2c1=O [Example 9, (E)-6-((2-(aminomethyl)-3-fluoroallyl)oxy)-2-butylbenzo[d]isoxazol-3(2H)-one 4-methylbenzenesulfonate]	10 to 30	< 0.1	1 to 10		
CCCCc1nc2ccc(OC/C(=C/F)CN)c(C)c2o1 [Example 10, (E)-2-(((2-butyl-7-methylbenzo[d]oxazol-6-yl)oxy)methyl)-3-fluoroprop-2-en-1-amine]	1 to 10	0.1 to 1	< 0.1		
CCCCc1nc2cc(OC/C(=C/F)CN)ccc2n1C [Example 11, (E)-2-(((2-butyl-1-methyl-1H-benzo[d]imidazol-5-yl)oxy)methyl)-3-fluoroprop-2-en-1-amine]		< 0.1		> 50	> 50
CCCNc1nc2ccc(OC/C(=C\F)CN)cc2s1 [Example 12, (Z)-6-((2-(aminomethyl)-3-fluoroallyl)oxy)-N-propylbenzo[d]thiazol-2-amine 4-methylbenzenesulfonate]	1 to 10	< 0.1	1 to 10		
CCCCc1nc2ccc(OC/C(=C/F)CN)cc2[nH]1 [Example 13, (E)-2-(((2-butyl-1H-benzo[d]imidazol-6-yl)oxy)methyl)-3-fluoroprop-2-en-1-amine 4-methylbenzenesulfonate]		< 0.1	1 to 10	> 50	
CCCNc1nc2ccc(OC/C(=C\F)CN)c(F)c2s1 [Example 14, (Z)-6-((2-(aminomethyl)-3-fluoroallyl)oxy)-7-fluoro-N-propylbenzo[d]thiazol-2-amine 4-methylbenzenesulfonate]	1 to 10	< 0.1	1 to 10		
CCCCc1nc2ccc(OC/C(=C\F)CN)c(F)c2s1 [Example 15, (Z)-2-(((2-butyl-7-fluorobenzo[d]thiazol-6-yl)oxy)methyl)-3-fluoroprop-2-en-1-amine 4-methylbenzenesulfonate]		< 0.1	< 0.1		
CCCCc1nc2ccc(OC/C(F)=C\CN)cc2o1 [Example 16, (E)-4-((2-butylbenzo[d]oxazol-6-yl)oxy)-3-fluorobut-2-en-1-amine]		0.1 to 1			
CCCCc1nc2ccc(NC/C(=C/F)CN)cc2o1 [Example 17, (E)-N1-(2-butylbenzo[d]oxazol-6-yl)-2-(fluoromethylene)propane-1,3-diamine]	10 to 30	< 0.1	0.1 to 1		
CCCCc1nc2ccc(CC(=CF)CN)cc2o1 [Example 18, 2-((2-butylbenzo[d]oxazol-6-yl)methyl)-3-fluoroprop-2-en-1-amine]	1 to 10	< 0.1	0.1 to 1		
CCCCc1nc2ccc(OC/C(=C\F)CN)cc2o1 [Example 19, (Z)-2-(((2-butylbenzo[d]oxazol-6-yl)oxy)methyl)-3-fluoroprop-2-en-1-amine 4-methylbenzenesulfonate]	1 to 10	< 0.1	0.1 to 1		
CCCCc1nc2ccc(N(C)C/C(=C/F)CN)cc2o1 [Example 20, (E)-N1-(2-butylbenzo[d]oxazol-6-yl)-2-(fluoromethylene)-N1-methylpropane-1,3-diamine]	10 to 30	< 0.1	1 to 10		
NC/C(=C\F)COc1ccc2nc(NCc3ccccc3)oc2c1 [Example 21, (E)-6-((2-(aminomethyl)-3-fluoroallyl)oxy)-N-benzylbenzo[d]oxazol-2-amine 4-methylbenzenesulfonate]	10 to 30	< 0.1	0.1 to 1		
CCCCc1nc2ccc(SC/C(=C/F)CN)cc2o1 [Example 22, (E)-2-(((2-butylbenzo[d]oxazol-6-yl)thio)methyl)-3-fluoroprop-2-en-1-amine 4-methylbenzenesulfonate]	10 to 30	< 0.1	0.1 to 1		
NC/C(=C\F)COc1ccc2nc(NCc3ccncc3)oc2c1 [Example 23, (E)-6-((2-(aminomethyl)-3-fluoroallyl)oxy)-N-(pyridin-4-ylmethyl)benzo[d]oxazol-2-amine 4-methylbenzenesulfonate]	10 to 30	< 0.1	1 to 10		
C=C(CN)C(F)(F)Oc1ccc2nc(CCCC)oc2c1 [Example 29, 2-(((2-butylbenzo[d]oxazol-6-yl)oxy)difluoromethyl)prop-2-en-1-amine hydrochloride]		0.1 to 1			
CCCCc1nc2ccc(CCC(=CF)CN)cc2o1 [Example 52, 4-(2-butylbenzo[d]oxazol-6-yl)-2-(fluoromethylene)butan-1-amine 4-methylbenzenesulfonate]		< 0.1			
CCCCc1nc2ccc(/C=C(/F)CN)cc2o1 [Example 95, (E)-3-(2-butylbenzo[d]oxazol-6-yl)-2-fluoroprop-2-en-1-amine]		0.1 to 1			
